Laboratory results from patent US20180072997A1, “INHIBITORS OF HUMAN IMMUNODEFICIENCY VIRUS REPLICATION” (ViiV HEATHCARE UK (NO.5) LIMITED, priority 2015, published 2018).

Key:
[1] = system: recombinant NL4-3 virus (Renilla luciferase in nef) in MT-2 cells; assay: whole plant or invertebrate; format: cell-based, HIV; conditions: luciferase activity
Protocol: HIV cell culture assay—MT-2 cells, 293T cells and the proviral DNA clone of NL4-3 virus were obtained from the NIH AIDS Research and Reference Reagent Program. MT-2 cells were propagated in RPMI 1640 media supplemented with 10% heat inactivated fetal bovine serum (FBS), 100 μg/ml penicillin G and up to 100 units/mL streptomycin. The 293T cells were propagated in DMEM media supplemented with 10% heat inactivated FBS, 100 μg/mL penicillin G and 100 μg/mL streptomycin. A recombinant NL4-3 proviral clone, in which a section of the nef gene was replaced with the Renilla luciferase gene, was used to make the reference virus used in these studies. The recombinant virus was prepared through transfection of the recombinant NL4-3 proviral clone into 293T cells using Transit-293 Transfection Reagent from Mirus Bio LLC (Madison, Wis.). Supernatent was harvested after 2-3 days and the amount of virus present was titered in MT-2 cells using luciferase enzyme activity as a marker by measuring luciferase enzyme activity. Luciferase was quantitated using the EnduRen Live Cell Substrate from Promega (Madison, Wis.). Antiviral activities of compounds toward the recombinant virus were quantified by measuring luciferase activity in MT-2 cells infected for 4-5 days with the recombinant virus in the presence of serial dilutions of the compound.
(Johnson V A, Byington R T. Infectivity Assay. In Techniques in HIV Research. ed. Aldovini A, Walker BD. 71-76. New York: Stockton Press.1990).

[2] = Compound cytotoxicity, XTT-based colorimetric assay; format: cell-based; conditions: human, uninfected MT2 cells, day 4, XTT
Protocol: Compound cytotoxicity and the corresponding CC50 values were determined using the same protocol as described in the antiviral assay except that uninfected cells were used. Cytotoxicity was assessed on day 4 in uninfected MT2 cells by using a XTT (2,3-bis[2-Methoxy-4-nitro-5-sulfophenyl]-2H-tetrazolium-5-carboxyanilide inner salt)-based colorimetric assay (Sigma-Aldrich, St Louis, Mo.).

[3] = Renilla, NL43, MT-2 cells infected for 4-5 days with recombinant NL4-3 Renilla luciferase virus
[4] = MT-2 cells infected for 4-5 days with recombinant NL4-3 Renilla luciferase virus

SMILES | EC50 [1, 3] [µM] | CC50 at 4 days [2] [µM] | EC50 [1, 4] [µM]
COc1ccc(N(C)C(=O)[C@H](Cc2ccccc2)NC(=O)C2CCCCC2C(=O)N[C@@H](Cc2ccccc2)C(=O)N(C)c2ccc(OC)cc2)cc1 (mixture of isomers) [Example 53] | 0.34 | ≥ 33.3 | 
COc1ccc(N(C)C(=O)[C@H](Cc2ccccc2)NC(=O)C=C(C)CC(=O)N[C@@H](Cc2ccccc2)C(=O)N(C)c2ccc(OC)cc2)cc1 (single isomer, unassigned) [Example 113] |  | 25.3 | 0.36
COc1ccc(N(C)C(=O)[C@H](Cc2ccccc2)NC(=O)C(C)n2c(=O)n(C(C)C(=O)N[C@@H](Cc3ccccc3)C(=O)N(C)c3ccc(OC)cc3)c3ccccc32)cc1 (single isomer, unassigned) [Example 131] | 0.49 | 6.3 | 
COc1ccc(N(C)C(=O)[C@H](Cc2cc(F)cc(F)c2)NC(=O)C(C)n2c(=O)n(C(C)C(=O)N[C@@H](Cc3cc(F)cc(F)c3)C(=O)N(C)c3ccc(OC)cc3)c3ccccc32)cc1 (single isomer, unassigned) [Example 132] |  | 7.3 | 1.94
C=CCCN(C(=O)[C@H](Cc1cc(F)cc(F)c1)NC(=O)NS(=O)(=O)N[C@@H](Cc1cc(F)cc(F)c1)C(=O)N(CCC=C)c1ccc2scnc2c1)c1ccc2scnc2c1 (single isomer, unassigned) [Example 141] |  | 16.2 | 0.09
COc1ccc(N(C)C(=O)[C@H](Cc2ccccc2)NC(=O)N[C@@H](Cc2ccccc2)C(=O)N(C)c2ccc(OC)cc2)cc1 [Example 1] | 2.86 | 23.1 | 
COc1ccc(N(C)C(=O)[C@H](Cc2ccccc2)NC(=O)NS(=O)(=O)N[C@@H](Cc2ccccc2)C(=O)N(C)c2ccc(OC)cc2)cc1 [Example 2] | 0.03 | 77.9 | 
COc1ccc(N(C)C(=O)[C@H](Cc2ccccc2)NC(=O)CC(=O)N[C@@H](Cc2ccccc2)C(=O)N(C)c2ccc(OC)cc2)cc1 [Example 3] | 1.94 | 70.9 | 
COc1ccc(N(C)C(=O)[C@H](Cc2ccccc2)NC(=O)C(C)(C)C(=O)N[C@@H](Cc2ccccc2)C(=O)N(C)c2ccc(OC)cc2)cc1 [Example 4] | 1.87 | ≥ 100 | 
CCOc1ccc(N(CC)C(=O)[C@H](Cc2ccccc2)NC(=O)NS(=O)(=O)N[C@@H](Cc2ccccc2)C(=O)N(CC)c2ccc(OCC)cc2)cc1 [Example 5] | 0.15 | ≥ 33.3 | 
COc1ccc(N(C)C(=O)[C@H](Cc2ccccc2)NC(=O)NS(=O)(=O)N[C@@H](Cc2ccccc2)c2nnc(SC)o2)cc1 [Example 6] | 6.78 | ≥ 100 | 
COc1ccc(N(C)C(=O)[C@H](Cc2ccccc2)NC(=O)NS(=O)(=O)N[C@@H](Cc2ccccc2)c2nc(C)no2)cc1 [Example 7] | 3.76 | ≥ 100 | 
COc1ccc(N(C)C(=O)[C@H](Cc2ccccc2)NC(=O)NS(=O)(=O)N[C@@H](Cc2ccccc2)C(=O)N2CCCC2)cc1 [Example 8] | 2.04 | ≥ 33.3 | 
COc1ccc(N(C)C(=O)[C@H](Cc2ccccc2)NC(=O)NS(=O)(=O)N[C@@H](Cc2ccc(F)cc2)C(=O)N(C)C)cc1 [Example 9] | 2.67 | ≥ 100 | 
COc1ccc(N(C)C(=O)[C@H](Cc2ccccc2)NC(=O)NC(=O)N[C@@H](Cc2ccccc2)C(=O)N(C)c2ccc(OC)cc2)cc1 [Example 10] | 4.71 | 10.5 | 
COc1ccc(N(C)C(=O)[C@H](Cc2ccccc2)NC(=O)NS(=O)(=O)N[C@H](Cc2ccccc2)C(=O)N(C)c2ccc(OC)cc2)cc1 [Example 11] | 0.47 | ≥ 33.3 | 
COc1ccc(NC(=O)[C@H](Cc2ccccc2)NS(=O)(=O)NC(=O)N[C@@H](Cc2ccccc2)C(=O)N(C)c2ccc(OC)cc2)cc1 [Example 12] | 12.4 | 29 | 
CN(C(=O)[C@H](Cc1ccccc1)NC(=O)NS(=O)(=O)N[C@@H](Cc1ccccc1)C(=O)N(C)c1ccc2scnc2c1)c1ccc2scnc2c1 [Example 13] | 0.08 | ≥ 100 | 
COc1ccc(N(C)C(=O)[C@H](Cc2ccccc2)NC(=O)NS(=O)(=O)N[C@@H](Cc2ccccc2)C(=O)N(C)c2ccc3c(c2)OCO3)cc1 [Example 14] | 0.08 | ≥ 50 | 
COc1ccc(N(C)C(=O)[C@H](Cc2ccccc2)NC(=O)NS(=O)(=O)N[C@@H](Cc2ccccc2)C(=O)N(C)c2cc(C)c(OC)cc2C)cc1 [Example 15] | 4.22 | 35.3 | 

SMILES | EC50 [1, 3] [µM] | CC50 at 4 days [2] [µM] | EC50 [1, 4] [µM]
COc1ccc(N(C)C(=O)[C@H](Cc2ccccc2)NC(=O)NS(=O)(=O)N[C@@H](Cc2ccccc2)C(=O)N(C)c2ccc(OC)cc2C)cc1 [Example 16] | 1.72 | ≥ 33.3 | 
COc1ccc(N(C)C(=O)[C@H](Cc2ccccc2)NC(=O)NS(=O)(=O)N[C@@H](Cc2ccccc2)C(=O)N(C)c2cc(OC)c(OC)c(OC)c2)cc1 [Example 17] | 12.2 | 15.9 | 
CN(C(=O)[C@H](Cc1cc(F)cc(F)c1)NC(=O)NS(=O)(=O)N[C@@H](Cc1cc(F)cc(F)c1)C(=O)N(C)c1ccc2scnc2c1)c1ccc2scnc2c1 [Example 18] | 0.03 | 85.3 | 
CN(C(=O)[C@H](Cc1ccccc1)NC(=O)NS(=O)(=O)N[C@@H](Cc1ccccc1)C(=O)N(C)c1ccc2c(c1)OCO2)c1ccc2c(c1)OCO2 [Example 19] | 0.17 | 99.5 | 
COc1ccc(N(C)C(=O)[C@H](Cc2cc(F)cc(F)c2)NC(=O)NS(=O)(=O)N[C@@H](Cc2cc(F)cc(F)c2)C(=O)N(C)c2ccc(OC)cc2)cc1 [Example 20] | 0.01 | 35 | 
COc1ccc(N(C)C(=O)[C@H](Cc2ccccc2)NC(=O)CCC(=O)N[C@@H](Cc2ccccc2)C(=O)N(C)c2ccc(OC)cc2)cc1 [Example 21] | 3.25 | 27 | 
COc1ccc(N(C)C(=O)[C@H](Cc2ccccc2)NC(=O)CCCC(=O)N[C@@H](Cc2ccccc2)C(=O)N(C)c2ccc(OC)cc2)cc1 [Example 22] | 1.31 | 21.1 | 
COc1ccc(N(C)C(=O)[C@H](Cc2ccccc2)NC(=O)CCCCC(=O)N[C@@H](Cc2ccccc2)C(=O)N(C)c2ccc(OC)cc2)cc1 [Example 23] | 1.16 | 26.9 | 
COc1ccc(N(C)C(=O)[C@H](Cc2ccccc2)NC(=O)c2cccc(C(=O)N[C@@H](Cc3ccccc3)C(=O)N(C)c3ccc(OC)cc3)c2)cc1 [Example 24] | 0.09 | 4.2 | 
COc1ccc(N(C)C(=O)[C@H](Cc2ccccc2)NC(=O)c2ccc(C(=O)N[C@@H](Cc3ccccc3)C(=O)N(C)c3ccc(OC)cc3)cc2)cc1 [Example 25] | 1.13 | 3.7 | 
COc1ccc(N(C)C(=O)[C@H](Cc2ccccc2)NC(=O)CN2c3ccccc3N(CC(=O)N[C@@H](Cc3ccccc3)C(=O)N(C)c3ccc(OC)cc3)S2(=O)=O)cc1 [Example 27] | 0.04 | ≥ 100 | 
COc1ccc(N(C)C(=O)[C@H](Cc2ccccc2)NS(=O)(=O)CCCS(=O)(=O)N[C@@H](Cc2ccccc2)C(=O)N(C)c2ccc(OC)cc2)cc1 [Example 28] | 1.4 | 30 | 
COc1ccc(N(C)C(=O)[C@H](Cc2ccccc2)NC(=O)CN(CCO)CC(=O)N[C@@H](Cc2ccccc2)C(=O)N(C)c2ccc(OC)cc2)cc1 [Example 29] | 2.49 | 31.8 | 
COc1ccc(N(C)C(=O)[C@H](Cc2ccccc2)NC(=O)CC(C)(C)C(=O)N[C@@H](Cc2ccccc2)C(=O)N(C)c2ccc(OC)cc2)cc1 [Example 30] | 4.96 | 31.2 | 
COc1ccc(N(C)C(=O)[C@H](Cc2ccccc2)NC(=O)/C=C/C(=O)N[C@@H](Cc2ccccc2)C(=O)N(C)c2ccc(OC)cc2)cc1 [Example 31] | 0.78 | 3.5 | 
COc1ccc(N(C)C(=O)[C@H](Cc2ccccc2)NC(=O)C[C@H](O)C(=O)N[C@@H](Cc2ccccc2)C(=O)N(C)c2ccc(OC)cc2)cc1 [Example 32] | 3.29 | 34.6 | 
COc1ccc(N(C)C(=O)[C@H](Cc2cc(F)cc(F)c2)NC(=O)CN2c3ccccc3N(CC(=O)N[C@@H](Cc3cc(F)cc(F)c3)C(=O)N(C)c3ccc(OC)cc3)S2(=O)=O)cc1 [Example 34] | 0.01 | ≥ 100 | 
CN(C(=O)[C@H](Cc1cc(F)cc(F)c1)NC(=O)c1c(F)c(F)c(F)c(C(=O)N[C@@H](Cc2cc(F)cc(F)c2)C(=O)N(C)c2ccc3scnc3c2)c1F)c1ccc2scnc2c1 [Example 81] |  | 2.8 | 
CN(C(=O)[C@H](Cc1cc(F)cc(F)c1)NC(=O)CN1c2ccccc2N(CC(=O)N[C@@H](Cc2cc(F)cc(F)c2)C(=O)N(C)c2ccc3scnc3c2)S1(=O)=O)c1ccc2scnc2c1 [Example 118] |  | ≥ 100 | 
CCc1ccc(N(C)C(=O)[C@H](Cc2cc(F)cc(F)c2)NC(=O)NS(=O)(=O)N[C@@H](Cc2cc(F)cc(F)c2)C(=O)N(C)c2ccc(CC)cc2)cc1 [Example 173] |  | 25.5 | 
